Results: PubChem BioAssay (NCI)
“And” between values parts separate entries of the source, which are not always exact repeats. Identical values can stand only once.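 Cells were grown in 96-well plates and exposed to each compound for 48 hours at five concentrations; endpoints were interpolated linearly between bracketing concentrations, or set to the highest concentration if not reached. GI50 = concentration required for 50% inhibition of growth. TGI marks complete inhibition of growth.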

Legend:
Test in all cases: NCI tumour cell line growth inhibition, 48 h
[1] = tested on: NCI/ADR-RES ovarian
[2] = tested on: ACHN renal
[3] = tested on: SF-539 CNS
[4] = tested on: CAKI-1 renal
[5] = tested on: MDA-N
[6] = tested on: M14 melanoma
[7] = tested on: HCT-15 colon
[8] = tested on: K-562 leukemia
[9] = tested on: OVCAR-8 ovarian
[10] = tested on: RXF 393 renal
[11] = tested on: A549 NSCLC
[12] = tested on: SF-295 CNS
[13] = tested on: OVCAR-4 ovarian
[14] = tested on: MOLT-4 leukemia

| Compound | TGI [1] [µM] | TGI [2] [µM] | TGI [3] | TGI [4] [µM] | TGI [5] [µM] | TGI [6] [µM] | TGI [7] | TGI [8] [µM] | TGI [9] | TGI [10] | TGI [11] [µM] | TGI [12] [µM] | TGI [13] [µM] | TGI [14] | GI50 [13] | GI50 [14] | GI50 [7] | GI50 [8] | GI50 [9] [µM] | GI50 [10] |
| --- | --- | --- | --- | --- | --- | --- | --- | --- | --- | --- | --- | --- | --- | --- | --- | --- | --- | --- | --- | --- |
| O=c1cnn(C/C=C/CP(=O)(O)O)c(=O)[nH]1 | > 100 | > 100 | > 100 µM | > 100 | > 100 | > 100 | > 100 µM | > 100 | > 100 µM | > 100 µM | > 100 |  |  |  |  |  |  |  |  |  |
| COc1cccc(N2C(=O)CSC2c2c[nH]c3ccccc23)c1 (stereo not given) |  |  |  |  | > 100 | > 100 | > 100 µM | > 100 | > 100 µM | > 100 µM |  | > 100 | > 100 | > 100 µM |  |  |  |  |  |  |
| CCOC(=O)c1csc(NC(=O)CN2CCCCC2)n1 | > 100 | > 100 | > 100 µM | > 100 | > 100 | > 100 | > 100 µM | > 100 | > 100 µM | > 100 µM | > 100 | > 100 | > 100 | > 100 µM |  |  |  |  |  |  |
| COC(=O)C1C(O)C(C)C(O)C(C)/C=C\C=C(C)C(=O)Nc2c(C)c(OC(C)=O)c3c(c2O)C(=O)C(C)=C2OCOC(=C23)C(C)=CC(C)(O)C(O)C(C)C1O (stereo not given) | > 100 | > 100 | 74.3 µM and > 100 µM | > 62.2 | > 100 | > 100 | 50.8 µM and > 100 µM | > 100 | 47 µM and > 100 µM | 51.9 µM and > 100 µM | > 100 | > 100 | > 100 | 45.4 µM and > 100 µM | > 66.3 µM and 14.6 µM | 18.1 µM and 51.1 µM | 19.4 µM and > 100 µM | 28.3 µM and > 100 µM | 23.6 | 20.9 µM and > 100 µM |
| CC(C)OP(=O)(OC(C)C)c1nn(-c2ccc([N+](=O)[O-])cc2)c(=N)s1 |  | > 100 | > 100 µM | > 100 |  | > 100 | > 100 µM | > 100 | > 100 µM |  | > 100 | > 100 | > 100 | > 100 µM |  |  |  |  |  |  |
